Columns and labels:
Assay in all cases: relative viability (nuclei count vs DMSO), 5 days (fraction); higher = more cells survive
[1] = compound: CC(C)N(CCCNC(=O)Nc1ccc(C(C)(C)C)cc1)C[C@H]1O[C@@H](n2ccc3c(N)ncnc32)[C@H](O)[C@@H]1O + COc1cc2c(Oc3ccc(NC(=O)C4(C(=O)Nc5ccc(F)cc5)CC4)cc3F)ccnc2cc1OCCCN1CCOCC1 [Foretinib] (partner 0.25 µM)
Procedure, shortened: (§1)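 A single step with final 0.05% Triton X-100, 1% formaldehyde and 1 ug/ml Hoechst fixed the cells and stained nuclei 5 days after treatment. Lung cancer cell lines in 1536-well plates had been treated by pin tool the day after seeding with one drug alone or a fixed anchor-drug dose plus five library-drug doses (not always all listed) in √10 steps, and nuclei were counted on 4× images. Relative viability is the ratio of nuclei in treated wells to nuclei in vehicle wells, taken as the median of duplicate plates.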

[2] = compound: CC(C)N(CCCNC(=O)Nc1ccc(C(C)(C)C)cc1)C[C@H]1O[C@@H](n2ccc3c(N)ncnc32)[C@H](O)[C@@H]1O + N=C(N)NC(=N)NCCc1ccccc1 [Phenformin] (partner 250 µM)
Procedure, shortened: as §1

Shikonin + Alpelisib = compound: CC(C)=CC[C@@H](O)C1=CC(=O)c2c(O)ccc(O)c2C1=O [Shikonin] + Cc1nc(NC(=O)N2CCC[C@H]2C(N)=O)sc1-c1ccnc(C(C)(C)C(F)(F)F)c1 [Alpelisib] (partner 2 µM)
Procedure, shortened: as §1

Shikonin + Dasatinib = compound: CC(C)=CC[C@@H](O)C1=CC(=O)c2c(O)ccc(O)c2C1=O [Shikonin] + Cc1nc(Nc2ncc(C(=O)Nc3c(C)cccc3Cl)s2)cc(N2CCN(CCO)CC2)n1 [Dasatinib] (partner 0.075 µM)
Procedure, shortened: as §1

Cell Line	relative viability ([1]; first compound 0.08 µM)	relative viability ([1]; first compound 0.253 µM)	relative viability ([1]; first compound 2.53 µM)	relative viability ([1]; first compound 8 µM)	relative viability ([2]; first compound 0.08 µM)	relative viability ([2]; first compound 0.253 µM)	relative viability ([2]; first compound 2.53 µM)	relative viability ([2]; first compound 8 µM)	relative viability (Shikonin + Alpelisib; first compound 0.01 µM)	relative viability (Shikonin + Alpelisib; first compound 0.1 µM)	relative viability (Shikonin + Alpelisib; first compound 0.3162 µM)	relative viability (Shikonin + Alpelisib; first compound 1 µM)	relative viability (Shikonin + Dasatinib; first compound 0.01 µM)	relative viability (Shikonin + Dasatinib; first compound 0.1 µM)	relative viability (Shikonin + Dasatinib; first compound 0.3162 µM)	relative viability (Shikonin + Dasatinib; first compound 1 µM)	relative viability ([1]; first compound 0.8 µM)	relative viability ([2]; first compound 0.8 µM)
NCI-H441	1.01	0.913	0.801	0.968	0.813	0.923	0.776	0.824	1.14	0.874	0.508	0.729	0.632	0.466	0.631	0.675		
NCI-H460	1.05	1.1	1.05	0.996	0.493	0.555	0.485	0.436	0.522	0.841	0.618	0.569	0.509	0.762	0.556	0.605	1.03	0.54
NCI-H520	0.685	0.878	0.817	0.704	0.606	0.342	0.655	0.618		1.25	0.902	0.961	0.294	0.218	0.2	0.189	0.644	0.353
NCI-H596	0.792		1.02	0.872	0.819		0.781	0.713	0.464	0.481	0.543	0.504	0.585	0.59	0.566	0.641	0.846	0.626
NCI-H647	1.23	1.27	1.17	1.13	0.469	0.559	0.478	0.568	1.21	1.23	0.926	1.14	0.159	0.156	0.145	0.171		
NCI-H650	0.966	1.03	1.07	0.962	0.433	0.456	0.417	0.411	1.3		1.13	1.08	0.462	0.449	0.414	0.464	1.05	0.514
NCI-H661	1.08	1.13	1.11	1.06	0.28	0.27	0.288	0.305	0.676	0.718	0.893	0.792	0.866	0.856	0.816	0.983	1.09	0.276
NCI-H727	0.872	0.891	1.13	0.877	0.554	0.461	0.639	0.412	0.447	0.547	0.62	0.405	0.391	0.397	0.344	0.241	0.777	0.46
NCI-H838	1.05	0.981	0.981	0.943	0.487	0.394	0.551	0.51	1.02	1.18	1.04	1.21	0.314	0.284	0.262	0.333	1.17	0.551
NCI-H1355	0.755	0.839	0.941	0.972	0.441	0.444	0.48	0.432	0.819	0.823	0.943	0.927	0.6	0.676	0.721	0.787	0.933	0.387
NCI-H1395	0.957	0.839	0.967	0.853	0.433	0.436	0.438	0.424	1.14	1.16	0.973	1	0.376	0.403	0.45	0.449	0.909	0.43
NCI-H1437	1.21	1.2	1.23	1.11	0.278	0.344	0.294	0.309	0.987	1.14	0.987	1.1	0.377	0.385	0.367	0.531	1.19	0.276
NCI-H1563	0.952	0.975	0.957	0.931	0.67	0.627	0.666	0.697	0.906	0.999	0.875	0.779	0.379	0.435	0.467	0.458	0.988	0.626
NCI-H1651	0.876	0.79	0.871	0.808	0.34	0.302	0.288	0.35	0.921	0.98	1	1.07	0.385	0.391	0.37	0.438	0.86	0.295
NCI-H1666	0.976	0.949	0.938	0.92	0.546	0.594	0.586	0.542	0.915	0.964	1.07	0.856	0.809	0.873	0.882	0.857	1.03	0.543
NCI-H1734	0.825	1.01	0.796	0.804	0.38	0.331	0.4	0.397	0.7	0.722	0.788	0.663	0.512	0.499	0.538	0.477	0.918	0.398
NCI-H1755	0.92	0.909	0.857	0.868	0.62	0.609	0.632	0.554	1.02	0.946	1.07	0.97	0.484	0.46	0.499	0.475	0.925	0.614
NCI-H1793	0.709		0.606	0.621	0.396		0.371	0.316	0.863	0.779	0.754	0.722	0.419	0.376	0.381	0.461	0.677	0.336

Cell Line	relative viability ([1]; first compound 0.08 µM)	relative viability ([1]; first compound 0.253 µM)	relative viability ([1]; first compound 2.53 µM)	relative viability ([1]; first compound 8 µM)	relative viability ([2]; first compound 0.08 µM)	relative viability ([2]; first compound 0.253 µM)	relative viability ([2]; first compound 2.53 µM)	relative viability ([2]; first compound 8 µM)	relative viability (Shikonin + Alpelisib; first compound 0.01 µM)	relative viability (Shikonin + Alpelisib; first compound 0.1 µM)	relative viability (Shikonin + Alpelisib; first compound 0.3162 µM)	relative viability (Shikonin + Alpelisib; first compound 1 µM)	relative viability (Shikonin + Dasatinib; first compound 0.01 µM)	relative viability (Shikonin + Dasatinib; first compound 0.1 µM)	relative viability (Shikonin + Dasatinib; first compound 0.3162 µM)	relative viability (Shikonin + Dasatinib; first compound 1 µM)	relative viability ([1]; first compound 0.8 µM)	relative viability ([2]; first compound 0.8 µM)
NCI-H1915	1.02	1.07	1	1.03	0.362	0.388	0.388	0.353	1.09	1.12	1.13	1.04	0.316	0.35	0.3	0.341	1.06	0.378
NCI-H1944	0.811	0.88	0.919	0.882	0.223	0.195	0.188	0.198	0.747	0.936	0.992	0.909	0.193	0.247	0.196	0.158	0.958	0.199
NCI-H1975	0.853	0.916	0.707	0.765	0.393	0.387	0.393	0.338	0.676	0.712	0.702	0.538	0.354	0.344	0.344	0.359	0.871	0.202
NCI-H1993	0.755		0.796	0.784	0.464		0.539	0.498		0.662	0.661	0.699	0.537	0.489	0.645	0.361		
NCI-H2009	1.26	1.19	1.24	1.19	0.489	0.496	0.474	0.426	1.31	1.24	1.22	0.802	0.281	0.301	0.239	0.134	1.23	0.475
NCI-H2023	0.811	0.958	1.03	0.773	0.41	0.427	0.405	0.353	0.579	0.709	0.589	0.598	0.674	0.646	0.626	0.611	1.02	0.445
NCI-H2085	0.957	1.04	0.928	1.02	0.693	0.592	0.789	0.631	0.986	0.913	0.905	0.685	0.229	0.248	0.221	0.222	1.1	0.816
NCI-H2087	1.1	1.32	1.14	1.22	0.38	0.519	0.55	0.351	1.15	0.967	1.12	1.04	0.868	1.1	0.83	0.893	1.22	0.445
NCI-H2126	1.18	1.04	1.13	1.2	0.523	0.529	0.534	0.496	0.764	0.843	0.786	0.763	0.599	0.595	0.656	0.685	1.16	0.52
NCI-H2170	0.967	0.987	0.992	0.977	0.445	0.441	0.445	0.396	0.824	0.672	0.92	0.793	0.611	0.465	0.651	0.54	0.995	0.416
NCI-H2228	0.865	0.895	0.976	0.905	0.403	0.297	0.274	0.231	0.66	0.781	0.73	0.556	0.539	0.534	0.46	0.522	0.931	0.298
NCI-H2347	1.1	0.778	0.721	0.993	0.536	0.404	0.488	0.254	0.992	0.99	0.962	1.03	0.268	0.351	0.296	0.2	0.865	0.369
NCI-H2405	1.02	1.07	1.12	1.03	0.393	0.324	0.409	0.345	0.742	0.798	0.864	0.761	0.206	0.235	0.256	0.256	1.04	0.419
NCI-H3122	0.887	0.951	0.922	0.887	0.39	0.384	0.366	0.358	0.752	0.823	0.844	0.79	0.882	0.761	0.969	0.861	0.979	0.367
PC-3 [JPC-3]	1.05	1.15	1.05	0.936	0.478	0.491	0.451	0.488	1.04	1.11	1.05	1.08	1.11	0.968	1.1	0.958	0.96	0.495
PC-14	0.912	0.944	0.95	0.792	0.637	0.544	0.454	0.532	0.933	1.01	1.07	1.07	0.224	0.258	0.263	0.24	0.896	0.556
RERF-LC-KJ	0.906	0.814	0.794	0.79	0.384	0.378	0.386	0.395	0.78	0.732	0.798	0.787	0.991	0.975	0.834	0.661	0.888	0.422
SK-LU-1	0.904	0.919	0.911	0.754	0.569	0.493	0.56	0.45	1	1.09	0.965	0.8	0.164	0.191	0.182	0.186	0.898	0.519
